Here are results for one compound from US3976672A, “(Hydrocarbylphenylsulfonyl)alkyltrimethylstannanes” (priority 1975, dated 1976).

The data set can be described thus: Thermal stability on distillation. The class given is physicochemical. Conditions: at the temperature required to distill the starting sulfone. The procedure:
The pot residue, a black brittle glass when cooled, weighed 16.2 g. The cuts were analyzed by (glpc) gas-liquid phase chromatography using a 6 feet × 1/8 inch column packed with 10% of silicone gum rubber on silanized diatomaceous earth at a column temperature of 260° C. […] There also was a more volatile component which increased in amount in each successive cut. The latter observation accompanied by a gradual loss in vacuum is usually associated with some thermal decomposition. Cuts No. 2 and No. 3 were combined for a second distillation using a vacuum jacketed vigreaux column. One cut was obtained, b.p. 43°-125° C. […] The vigreaux column was replaced by a short-path head and a third distillation was run on the pot residue. The following cuts were taken:
A sample of Cut No. 1 was analyzed by nuclear magnetic resonance spectroscopy (NMR). […] In summary, the product could only be obtained as a mixture with the starting sulfone despite three distillation attempts to separate the mixture.

With `CC(C)(C)c1ccc(S(=O)(=O)[CH2][Sn]([CH3])([CH3])[CH3])cc1` [4-t-butylphenylsulfonylmethyltrimethylstannane], the thermal instability result is “thermal instability of the product at the temperature required to distill the starting sulfone”.
